Experimental data from ChEMBL document CHEMBL3885861, “Open TG-GATES”.

Species: Rattus norvegicus
Experiment: Open TG-GATES - Regimen: Daily Repeat
Assay type: toxicity, organism-based, Sprague-Dawley
Parameters: regimen Daily Repeat, gender Male, age 6 weeks
Conditions: in vivo, po, 20 mg/kg, route gavage, dose level Low; for APTT / Bas / Eos / Fbg / Hb / Ht / Lym / MCH / MCHC / MCV / Mono / Neu / PT / Plat / RBC / Ret / WBC: tissue Blood; for KIDNEY_L / KIDNEY_R / KIDNEY_TOTAL: tissue Kidney; for LIVER: tissue Liver; for A/G / ALP / ALT / AST / BUN / CRE / Ca / Cl / DBIL / GLC / IP / K / LDH / Na / PL / RALB / TBIL / TC / TG / TP / gamma-GTP: tissue Plasma

CC(CN1c2ccccc2Sc2ccccc21)N(C)C (configuration not stated) [PROMETHAZINE]
TERMINAL_BW (72 h, time 3 day): 231 g | APTT (72 h, time 3 day): 22 s | Bas (72 h, time 3 day): 0% | Eos (72 h, time 3 day): 1% | Fbg (72 h, time 3 day): 314.4 mg/dL | Hb (72 h, time 3 day): 13.3 g/dL | Ht (72 h, time 3 day): 40.4% | Lym (72 h, time 3 day): 77.2% | MCH (72 h, time 3 day): 20.7 pg | MCHC (72 h, time 3 day): 33.1% | MCV (72 h, time 3 day): 62.7 fL | Mono (72 h, time 3 day): 2.4% | Neu (72 h, time 3 day): 18.6% | PT (72 h, time 3 day): 16.2 s | Plat (72 h, time 3 day): 125.4 x10_4/uL | RBC (72 h, time 3 day): 644.6 x10_4/ul | Ret (72 h, time 3 day): 6.8% | WBC (72 h, time 3 day): 97.3 x10_2/uL | KIDNEY_L (72 h, time 3 day): 1 g | KIDNEY_R (72 h, time 3 day): 1.1 g | KIDNEY_TOTAL (72 h, time 3 day): 2.1 g | LIVER (72 h, time 3 day): 11.5 g | A/G (72 h, time 3 day): 1.2 | ALP (72 h, time 3 day): 1570.4 IU/L | ALT (72 h, time 3 day): 48.2 IU/L | AST (72 h, time 3 day): 75.2 IU/L | BUN (72 h, time 3 day): 17.2 mg/dL | CRE (72 h, time 3 day): 0.2 mg/dL | Ca (72 h, time 3 day): 10.8 mg/dL | Cl (72 h, time 3 day): 105.4 meq/L | DBIL (72 h, time 3 day): 0 mg/dL | GLC (72 h, time 3 day): 184 mg/dL | IP (72 h, time 3 day): 7.1 mg/dL | K (72 h, time 3 day): 4.3 meq/L | LDH (72 h, time 3 day): 166.4 IU/L | Na (72 h, time 3 day): 142 meq/L | PL (72 h, time 3 day): 155.2 mg/dL | RALB (72 h, time 3 day): 3.1 g/dL | TBIL (72 h, time 3 day): 0.004 mg/dL | TC (72 h, time 3 day): 78.2 mg/dL | TG (72 h, time 3 day): 118.4 mg/dL | TP (72 h, time 3 day): 5.7 g/dL | gamma-GTP (72 h, time 3 day): 2 IU/L | TERMINAL_BW ([…], time 7 day): 261 g | TERMINAL_BW ([…], time 14 day): 292.3 g | TERMINAL_BW ([…], time 28 day): 387.7 g | APTT ([…], time 7 day): 22.6 s | Bas ([…], time 7 day): 0% | Eos ([…], time 7 day): 0.8% | Fbg ([…], time 7 day): 282.6 mg/dL | Hb ([…], time 7 day): 13.4 g/dL | Ht ([…], time 7 day): 40.4% | Lym ([…], time 7 day): 84.4% | MCH ([…], time 7 day): 20.5 pg | MCHC ([…], time 7 day): 33.3% | MCV ([…], time 7 day): 61.5 fL | Mono ([…], time 7 day): 2.4% | Neu ([…], time 7 day): 11.6% | PT ([…], time 7 day): 16 s | Plat ([…], time 7 day): 114.7 x10_4/uL | RBC ([…], time 7 day): 657.4 x10_4/ul | Ret ([…], time 7 day): 5.4% | WBC ([…], time 7 day): 125.4 x10_2/uL | APTT ([…], time 14 day): 23.8 s | Bas ([…], time 14 day): 0% | Eos ([…], time 14 day): 1% | Fbg ([…], time 14 day): 315 mg/dL | Hb ([…], time 14 day): 14.7 g/dL | Ht ([…], time 14 day): 42.6% | Lym ([…], time 14 day): 79.6% | MCH ([…], time 14 day): 19.8 pg | MCHC ([…], time 14 day): 34.4% | MCV ([…], time 14 day): 57.6 fL | Mono ([…], time 14 day): 2% | Neu ([…], time 14 day): 16.6% | PT ([…], time 14 day): 15.8 s | Plat ([…], time 14 day): 112 x10_4/uL | RBC ([…], time 14 day): 740.6 x10_4/ul | Ret ([…], time 14 day): 4.2% | WBC ([…], time 14 day): 109.3 x10_2/uL | APTT ([…], time 28 day): 23.6 s | Bas ([…], time 28 day): 0% | Eos ([…], time 28 day): 1% | Fbg ([…], time 28 day): 297.6 mg/dL | Hb ([…], time 28 day): 15 g/dL | Ht ([…], time 28 day): 43.5% | Lym ([…], time 28 day): 79.2% | MCH ([…], time 28 day): 19.1 pg | MCHC ([…], time 28 day): 34.6% | MCV ([…], time 28 day): 55.2 fL | Mono ([…], time 28 day): 1.6% | Neu ([…], time 28 day): 17.4% | PT ([…], time 28 day): 16.3 s | Plat ([…], time 28 day): 96.2 x10_4/uL | RBC ([…], time 28 day): 787.8 x10_4/ul | Ret ([…], time 28 day): 2.3% | WBC ([…], time 28 day): 118.8 x10_2/uL | KIDNEY_L ([…], time 7 day): 1.1 g | KIDNEY_R ([…], time 7 day): 1.1 g | KIDNEY_TOTAL ([…], time 7 day): 2.2 g | KIDNEY_L ([…], time 14 day): 1.1 g | KIDNEY_R ([…], time 14 day): 1.1 g | KIDNEY_TOTAL ([…], time 14 day): 2.3 g | KIDNEY_L ([…], time 28 day): 1.4 g | KIDNEY_R ([…], time 28 day): 1.4 g | KIDNEY_TOTAL ([…], time 28 day): 2.7 g | LIVER ([…], time 7 day): 12.4 g | LIVER ([…], time 14 day): 13.1 g | LIVER ([…], time 28 day): 15.9 g | A/G ([…], time 7 day): 1.3 | ALP ([…], time 7 day): 1595.8 IU/L | ALT ([…], time 7 day): 46 IU/L | AST ([…], time 7 day): 79.8 IU/L | BUN ([…], time 7 day): 18.2 mg/dL | CRE ([…], time 7 day): 0.2 mg/dL | Ca ([…], time 7 day): 10.5 mg/dL | Cl ([…], time 7 day): 106.4 meq/L | DBIL ([…], time 7 day): 0 mg/dL | GLC ([…], time 7 day): 185.2 mg/dL | IP ([…], time 7 day): 6.7 mg/dL | K ([…], time 7 day): 4.3 meq/L | LDH ([…], time 7 day): 169.2 IU/L | Na ([…], time 7 day): 141.6 meq/L | PL ([…], time 7 day): 133 mg/dL | RALB ([…], time 7 day): 3.1 g/dL | TBIL ([…], time 7 day): 0.004 mg/dL | TC ([…], time 7 day): 66.2 mg/dL | TG ([…], time 7 day): 113.4 mg/dL | TP ([…], time 7 day): 5.5 g/dL | gamma-GTP ([…], time 7 day): 1.8 IU/L | A/G ([…], time 14 day): 1.2 | ALP ([…], time 14 day): 1261.8 IU/L | ALT ([…], time 14 day): 45.8 IU/L | AST ([…], time 14 day): 71.4 IU/L | BUN ([…], time 14 day): 18.6 mg/dL | CRE ([…], time 14 day): 0.2 mg/dL | Ca ([…], time 14 day): 10.6 mg/dL | Cl ([…], time 14 day): 106 meq/L | DBIL ([…], time 14 day): 0 mg/dL | GLC ([…], time 14 day): 182.6 mg/dL | IP ([…], time 14 day): 6.2 mg/dL | K ([…], time 14 day): 4.1 meq/L | LDH ([…], time 14 day): 128.4 IU/L | Na ([…], time 14 day): 142.6 meq/L | PL ([…], time 14 day): 146.6 mg/dL | RALB ([…], time 14 day): 3.2 g/dL | TBIL ([…], time 14 day): 0.004 mg/dL | TC ([…], time 14 day): 71.6 mg/dL | TG ([…], time 14 day): 116.6 mg/dL | TP ([…], time 14 day): 5.8 g/dL | gamma-GTP ([…], time 14 day): 2.6 IU/L | A/G ([…], time 28 day): 1.1 | ALP ([…], time 28 day): 1046.2 IU/L | ALT ([…], time 28 day): 48.6 IU/L | AST ([…], time 28 day): 71.6 IU/L | BUN ([…], time 28 day): 19.8 mg/dL | CRE ([…], time 28 day): 0.2 mg/dL | Ca ([…], time 28 day): 10.4 mg/dL | Cl ([…], time 28 day): 106.4 meq/L | DBIL ([…], time 28 day): 0 mg/dL | GLC ([…], time 28 day): 184.6 mg/dL | IP ([…], time 28 day): 5.9 mg/dL | K ([…], time 28 day): 4 meq/L | LDH ([…], time 28 day): 136 IU/L | Na ([…], time 28 day): 143.2 meq/L | PL ([…], time 28 day): 137.4 mg/dL | RALB ([…], time 28 day): 3.1 g/dL | TBIL ([…], time 28 day): 0.006 mg/dL | TC ([…], time 28 day): 65.4 mg/dL | TG ([…], time 28 day): 139.8 mg/dL | TP ([…], time 28 day): 6 g/dL | gamma-GTP ([…], time 28 day): 2 IU/L
